“And” between values parts separate entries of the source, which are not always exact repeats. Equal entries are not always repeated.
Tests used:
Format in all cases: cell-based, human
IMR90-4-derived BMECs [1] = assay: TEER of RA-treated IMR90-4-derived BMECs (monoculture and neural cell co-culture)
Procedure: (§1) IMR90-4 and DF19-9-11T hiPSCs and H9 hESCs were maintained between passages 26-42 on […] (BD Biosciences) in mTeSR1™ medium ([…] Technologies) or on irradiated mouse embryonic fibroblasts (MEFs) in standard unconditioned medium (Dulbecco's Modified Eagle's Medium [DMEM]/Ham's F12 containing 20% Knockout Serum Replacer (Invitrogen), 1×MEM nonessential amino acids (Invitrogen), 1 mM L-glutamine (Sigma), 0.1 mM β-mercaptoethanol (Sigma), and human basic fibroblast growth factor (bFGF; 100 ng/mL for hiPSCs and 4 ng/mL for hESCs; Waisman Clinical Biomanufacturing Facility, University of Wisconsin-Madison)). Prior to differentiation, cells were passaged onto Matrigel (BD Biosciences) in mTeSR1 medium ([…] Technologies). After 2-3 days in mTeSR1, medium was switched to unconditioned medium (UM) lacking bFGF for 6 days. Human endothelial serum-free medium (hESFM; Invitrogen) supplemented with 20 ng/mL bFGF (R&D Systems) and 1% platelet-poor plasma derived bovine serum (Biomedical Technologies, Inc.) was then added for an additional 2-4 days.
(§2) All-trans RA (Sigma) was included at concentrations of 1-10 μM depending on the experiment. Equivalent DMSO was used as a vehicle control in some experiments. Cells were then dissociated with Versene (Invitrogen) and plated onto 12-well tissue culture polystyrene plates or 1.12 cm^2 Transwell-Clear® permeable inserts (0.4 μm pore size) coated with a mixture of collagen IV (400 μg/mL; Sigma) and fibronectin (100 μg/mL; Sigma). Culture plates were incubated with the coating for at least 30 min at 37° C., while the inserts were incubated for a minimum of 4 h at 37° C. hPSC-derived BMECs were then cultured in EC medium overnight (with or without RA). […] Also, our previous study used hPSCs exclusively maintained on MEFs.
(§3) FIG. 5 dictates the timing of co-culture experiments. During the subculture phase, hPSC-derived BMECs were monocultured or co-cultured with pericytes or fibroblasts in EC medium (with or without RA). After the 24 h subculture phase, hPSC-derived BMECs were maintained as a monoculture or co-cultured with differentiated hNPCs, pericytes, or fibroblasts. Depending on the experiment, co-culture was conducted in NPC differentiation medium containing 10% FBS (as opposed to the 1% FBS used during NPC differentiation) or hESFM containing 1% PDS but not bFGF (modified EC medium). Trans-endothelial electrical resistance (TEER) was measured immediately prior to co-culture using an EVOM voltohmmeter (World Precision Instruments, Sarasota, Fla., USA) and approximately every 24 h thereafter as necessary.

H9-derived BMECs = assay: TEER of RA-treated H9-derived BMECs
Procedure: as §1, §2, §3

IMR90-4-derived BMECs [2] = assay: Analysis of tight junction fidelity (frayed tight junctions, occludin immunolabel)
Procedure: Cells were washed twice with phosphate-buffered saline (PBS; Sigma) and fixed with either 100% ice-cold methanol for 10 min or 4% paraformaldehyde for 15 min. Cells were then washed twice with PBS and blocked in PBS containing 40% goat serum (40% PBSG; Sigma) at 20° C. for 30 min. In some instances, 0.1% Triton X-100 (TX-100) was included during this step to permeabilize the cells. Cells were then washed once with PBS and incubated with primary antibodies against occludin (1:100; Invitrogen), claudin-5 (1:100; Invitrogen), VE-cadherin (1:25; Santa Cruz Biotechnology), von Willebrand Factor (vWF; 1:100; Dako), p-glycoprotein (clone F4; 1:25; Lab Vision), breast cancer resistance protein (BCRP, clone 5D3; 1:25; Millipore), multidrug resistance protein 1 (MRP1, clone QCRL-1; 1:100; Millipore), in 40% PBSG at 4° C. overnight. Cells were washed three times with PBS and incubated with secondary antibodies (goat anti-rabbit Texas Red and goat anti-mouse Alexa Fluor 488; 1:500; Invitrogen) for 1 h at 20° C. Cell nuclei were counterstained with 300 nM 4′,6-Diamidino-2-pheny-lindoldihydrochloride (DAPI) for 10 min. […] For quantitative analysis of BMEC integrity, the percentage of cells expressing frayed tight junctions was counted using BMECs immunolabeled for occludin. […] A minimum of four separate frames and 1000 total cells were counted to obtain a percentage of frayed tight junctions.

[3] = tested on: efflux transporter genes in IMR90-4-derived BMECs; assay: qPCR of efflux transporter gene expression; conditions: compared to untreated samples
Procedure: Cells were washed once with PBS and dissociated with ACCUTASE (Invitrogen). Total RNA was extracted using an RNEASY Mini Kit (Qiagen) according to the manufacturer's instructions and quantified using a NanoDrop® ND-1000. cDNA was generated from 1 μg of total RNA using Omniscript reverse transcriptase (Qiagen) and an oligo-dT primer (Invitrogen). qPCR was conducted using 1 μL of cDNA and iQ SYBR Green Mastermix (Bio-Rad) on an iCycler (Bio-Rad). Relative expression was quantified between samples using the comparative cycle threshold (Ct) method with glyceraldehyde-3-phosphate dehydrogenase (GAPDH) as the housekeeping gene. […] Primer sequences were as previously reported.

SMILES: CC1=C(/C=C/C(C)=C/C=C/C(C)=C/C(=O)O)C(C)(C)CCC1 [RA, retinoic acid]
- TEER (IMR90-4-derived BMECs [1]; 24 hours after transfer to EC medium without bFGF or RA, monoculture): above 2000 Ω×cm^2
- TEER (IMR90-4-derived BMECs [1]; 24 hours in modified EC medium, fibroblasts (FIG. 11a)): 2405±366 Ω×cm^2
- TEER (IMR90-4-derived BMECs [1]; 24 hours in modified EC medium, monoculture control (FIG. 11a)): 2474±124 Ω×cm^2
- TEER (IMR90-4-derived BMECs [1]; 24 hours, sequential pericyte/hNPC co-culture in modified EC medium (FIG. 11a)): 5160±318 Ω×cm^2
- TEER (IMR90-4-derived BMECs [1]; pericyte/hNPC co-culture, each of 7 co-cultures, hNPCs differentiated 10-19 days, 10% FBS (FIG. 10c)): exceeded 2500 Ω×cm^2
- TEER under optimal conditions (IMR90-4-derived BMECs [1]; pericytes/hNPCs in modified EC medium, five out of six separate co-culture experiments): > 5000 Ω×cm^2
- Maximum TEER (IMR90-4-derived BMECs [1]; subculture: monoculture, co-culture phase: differentiated NPCs (10 days), 10% FBS): 2938 ± 229 (3) Ω × cm^2
- Maximum TEER (IMR90-4-derived BMECs [1]; subculture: pericytes, co-culture phase: differentiated NPCs (10 days), 10% FBS): 3606 ± 366 (7) Ω × cm^2
- Maximum TEER (IMR90-4-derived BMECs [1]; subculture: pericytes, co-culture phase: differentiated NPCs (17 days), 1% PDS): 5352±252 Ω × cm^2 and 5352 ± 252 (6) Ω × cm^2
- Maximum TEER (IMR90-4-derived BMECs [1]; subculture: pericytes, co-culture phase: pericytes, 1% PDS (modified EC medium), 24 h): 4454±174 Ω × cm^2 and 4454 ± 175 ^ Ω × cm^2
- Maximum TEER (IMR90-4-derived BMECs [1]; subculture: pericytes, co-culture phase: pericytes, 10% FBS): 2892 ± 271 ^ Ω × cm^2
- Average TEER (IMR90-4-derived BMECs [1]; t = 0 h, monoculture, mean ± S.D. between biological replicates): 956 ± 345 Ω × cm^2
- Maximum TEER (IMR90-4-derived BMECs [1]; t = 0 h, monoculture, mean ± S.D. between triplicate filters): 1502 ± 145 Ω × cm^2
- Average TEER (IMR90-4-derived BMECs [1]; t = 24 h, monoculture, modified EC medium without bFGF or RA, between biological replicates): 2935±802 Ω × cm^2 and at least 2935±802 Ω × cm^2
- Maximum TEER (IMR90-4-derived BMECs [1]; t = 24 h, monoculture, triplicate filters): 3674 ± 367 Ω × cm^2
- baseline TEER (IMR90-4-derived BMECs [1]; t=0 h, 24 hours after purification at confluence, range over experiments): 300-1500 Ω×cm^2
- TEER (IMR90-4-derived BMECs [1]; t=0, human foreskin fibroblasts in place of pericytes (FIG. 11a)): 2106±30 Ω×cm^2
- TEER (IMR90-4-derived BMECs [1]; t=0, monoculture control of FIG. 11a): 1575±163 Ω×cm^2
- TEER (IMR90-4-derived BMECs [1]; t=0, pericyte co-culture during the subculture phase, standard EC medium (FIG. 11a)): 3573±175 Ω×cm^2
- TEER (H9-derived BMECs; optimized RA schedule (6D UM, 1D EC, 3D EC+RA), after purification (FIG. 9c)): 1039±142 Ω×cm^2
- Maximum TEER (H9-derived BMECs; subculture: pericytes, co-culture phase: differentiated NPCs (9 days), 1% PDS): 1675±95 Ω × cm^2 and 1675 ± 95 (2) Ω × cm^2
- Average TEER (H9-derived BMECs; t = 24 h, optimized RA schedule, between biological replicates): 646±308 Ω × cm^2
- Maximum TEER (H9-derived BMECs; t = 24 h, triplicate filters): 1028 ± 153 Ω × cm^2
- cells with frayed tight junctions (IMR90-4-derived BMECs [2]; BMECs only treated with RA): 1.5±0.9%
- cells with frayed tight junctions (IMR90-4-derived BMECs [2]; RA-treated BMECs with sequential pericyte/hNPC co-culture in modified EC medium): 1.4±0.6%
- ABCB1 (p-glycoprotein) upregulation, ΔΔCt [3]: 1.6±0.4
- ABCC1 (MRP1) upregulation, ΔΔCt [3]: 1.97±0.71
- ABCC2 (MRP2) upregulation, ΔΔCt [3]: 1.3±0.31
- ABCC5 (MRP5) upregulation, ΔΔCt [3]: 0.9±0.29
- ABCG2 (BCRP) upregulation, ΔΔCt [3]: 1.8±0.15
